Results as given in patent US4493843A, “Indole and indoline carboxylic acid compounds and method of use” (May & Baker Limited, priority 1980, dated 1985).
Where a name gives a salt, the structure may show the parent alone. Read-outs that look alike come from different tables or passages of the source.

Test system: serum cholesterol and serum triglycerides
Assay: Hypolipidaemic activity in rats (compound in diet, last 7 of 10 days)
Type: in vivo, Male Wistar rats
Conditions: 7 days; for change in vivo at 0.2 % strength / change in vivo at 0.1 % strength / change in vivo at 0.03 % strength: Rattus norvegicus, po, 168 h; for change in vivo at 0.1 % strength: 0.1 % w/w dose in diet; for change in vivo at 0.03 % strength: 0.03 % w/w dose in diet
Description: Hypolipidaemic Activity in Rats
Male Wistar rats each weighing between 120 and 150 g were caged in groups of eight and fed a powdered diet for 10 days. For the last 7 days of that period the test compound was administered orally by mixing the compound in the diet and allowing the animals to feed normally. Food consumption was measured on day 9 for each group.
At noon on day 10 the animals were killed by inhalation of carbon dioxide from solid carbon dioxide. A sample of blood was removed by cardiac puncture and the serum cholesterol and serum triglycerides were analysed by means of an autoanalyser.
Control groups (receiving only the normal, unmedicated diet) were included with each test.
The percentage reductions in the concentrations of serum cholesterol and serum triglycerides were calculated by comparison with the simultaneous controls, for each concentration of the test compound used.

[1] = 0.2 % w/w dose in diet, read-out: % change in serum cholesterol compared with control
[2] = 0.2 % w/w dose in diet, read-out: % change in serum triglycerides compared with control
[3] = read-out: % change in serum cholesterol compared with control
[4] = read-out: % change in serum triglycerides compared with control

For `CCCCCCCCCCCCCCCC1Cc2cc(C(=O)O)ccc2N1` (racemic) [Compound AAA, (RS)-2-(n-pentadecyl)indoline-5-carboxylic acid], the change in vivo at 0.2 % strength [1] was -12% and the change in vivo at 0.2 % strength [2] was -55%.

Work on `CCCCCCCC1Cc2cc(C(=O)O)ccc2N1` (racemic) [Compound ABB, (RS)-2-(n-heptyl)indoline-5-carboxylic acid] yielded a change in vivo at 0.2 % strength [1] of -18% and a change in vivo at 0.2 % strength [2] of -34%.

Compound `CCCCCCCCCCC1Cc2cc(C(=O)O)ccc2N1` (racemic) [Compound ACC, (RS)-2-(n-decyl)indoline-5-carboxylic acid] has a change in vivo at 0.2 % strength [1] of -26% and a change in vivo at 0.2 % strength [2] of -71%.

`CCCCCCCCCCCCCCCCCC1Cc2cc(C(=O)O)ccc2N1` (racemic) [Compound ADD, (RS)-2-(n-heptadecyl)indoline-5-carboxylic acid] showed a change in vivo at 0.2 % strength [1] of -6% and a change in vivo at 0.2 % strength [2] of -40%.

Work on `CCCCCCCC1Cc2ccc(C(=O)O)cc2N1` (racemic) [Compound AEE, (RS)-2-(n-heptyl)indoline-6-carboxylic acid] yielded a change in vivo at 0.2 % strength [1] of -22% and a change in vivo at 0.2 % strength [2] of -37%.

For `CCCCCCCCCCCC1Cc2ccc(C(=O)O)cc2N1` (racemic) [Compound AFF, (RS)-2-(n-undecyl)indoline-6-carboxylic acid], the change in vivo at 0.2 % strength [1] was -38% and the change in vivo at 0.2 % strength [2] was -58%.

`CCCCCCCCCCCCCCC1Cc2ccc(C(=O)O)cc2N1` (racemic) [Compound AGG, (RS)-2-(n-tetradecyl)indoline-6-carboxylic acid] showed a change in vivo at 0.2 % strength [1] of -8% and a change in vivo at 0.2 % strength [2] of -23%.

In the case of `CCCCCCCCCCCC1Cc2ccc(C(=O)O)cc2N1C` (racemic) [Compound BII, (RS)-1-methyl-2-(n-undecyl)indoline-6-carboxylic acid], the change in vivo at 0.2 % strength [1] is reported as 0% and the change in vivo at 0.2 % strength [2] is reported as -30%.

With `CCCCCCCCCCCC1Cc2cc(C(=O)O)ccc2N1C` (racemic) [Compound BJJ, (RS)-1-methyl-2-(n-undecyl)indoline-5-carboxylic acid] the change in vivo at 0.2 % strength [1] was -15% and the change in vivo at 0.2 % strength [2] was -41%.

For `CCCCCCCCCCCCCCCCC1CNc2ccc(C(=O)OC)cc21` (racemic) [Compound BNN, (RS)-methyl 3-(n-hexadecyl)indoline-5-carboxylate], the change in vivo at 0.2 % strength [1] was 7% and the change in vivo at 0.2 % strength [2] was -20%.

In the case of `CCCCCCCCCCCCCCCCCCC1CNc2ccc(C(=O)O)cc21` (racemic) [Compound BOO, (RS)-3-(n-octadecyl)indoline-5-carboxylic acid], the change in vivo at 0.2 % strength [1] is reported as 3% and the change in vivo at 0.2 % strength [2] is reported as 9%.

With `CCCCCCCCCCC1CNc2ccc(C(=O)O)cc21` (racemic) [Compound BPP, (RS)-3-(n-decyl)indoline-5-carboxylic acid] the change in vivo at 0.2 % strength [1] was -3% and the change in vivo at 0.2 % strength [2] was 0%.

For `CCCCCCCCC1CNc2ccc(C(=O)O)cc21` (racemic) [Compound BQQ, (RS)-3-(n-octyl)indoline-5-carboxylic acid], the change in vivo at 0.2 % strength [1] was 11% and the change in vivo at 0.2 % strength [2] was 31%.

Compound `CCCCCCCCCCC1CNc2cc(C(=O)O)ccc21` (racemic) [Compound BYY, (RS)-3-(n-decyl)indoline-6-carboxylic acid] has a change in vivo at 0.2 % strength [1] of -23% and a change in vivo at 0.2 % strength [2] of -50%.

With `CCCCCCCCCCCCCCCC1CNc2cc(C(=O)O)ccc21` (racemic) [Compound BZZ, (RS)-3-(n-pentadecyl)indoline-6-carboxylic acid] the change in vivo at 0.2 % strength [1] was -1% and the change in vivo at 0.2 % strength [2] was -29%.

With `CCCCCCCCCCCCC1CNc2cc(C(=O)O)ccc21` (racemic) [Compound CAA, (RS)-3-(n-dodecyl)indoline-6-carboxylic acid] the change in vivo at 0.2 % strength [1] was -28% and the change in vivo at 0.2 % strength [2] was -46%.

`CCCCCCCCCCCCCCCCCCC1CNc2cc(C(=O)O)ccc21` (racemic) [Compound CBB, (RS)-3-(n-octadecyl)indoline-6-carboxylic acid] gave a change in vivo at 0.2 % strength [1] of 2% and a change in vivo at 0.2 % strength [2] of -7%.

With `CCCCCCCCC1CNc2cc(C(=O)O)ccc21` (racemic) [Compound CCC, (RS)-3-(n-octyl)indoline-6-carboxylic acid] the change in vivo at 0.2 % strength [1] was -11% and the change in vivo at 0.2 % strength [2] was -28%.

In the case of `CCCCCCCCCCCCCCCCC1CNc2cc(C(=O)O)ccc21` (racemic) [Compound CDD, (RS)-3-(n-hexadecyl)indoline-6-carboxylic acid], the change in vivo at 0.2 % strength [1] is reported as -19% and the change in vivo at 0.2 % strength [2] is reported as -41%.

For `CCCCCCCCC1CNc2cc(C(=O)OC)ccc21` (racemic) [Compound CEE, (RS)-methyl 3-(n-octyl)indoline-6-carboxylate], the change in vivo at 0.2 % strength [1] was -16% and the change in vivo at 0.2 % strength [2] was -16%.

Compound `CCCCCCCCCCCCCCCCC1CNc2cc(C(=O)OC)ccc21` (racemic) [Compound CFF, (RS)-methyl 3-(n-hexadecyl)indoline-6-carboxylate] has a change in vivo at 0.2 % strength [1] of 6% and a change in vivo at 0.2 % strength [2] of 10%.

`CCCCCCCCCCCc1cc2ccc(C(=O)OCC(O)CO)cc2[nH]1` (racemic) [Compound CVV, (RS)-2,3-dihydroxyprop-1-yl 2-(n-undecyl)indole-6-carboxylate] showed a change in vivo at 0.1 % strength [3] of -16% and a change in vivo at 0.1 % strength [4] of -56%.

`CCCCCCCCCC(C)c1cc2cc(C(=O)O)ccc2[nH]1` (racemic) [Compound RR, (RS)-2-(1-methyldecyl)indole-5-carboxylic acid] showed a change in vivo at 0.2 % strength [1] of -7% and a change in vivo at 0.2 % strength [2] of -88%.

With `CCCCCCCCCC(C)c1cc2ccc(C(=O)O)cc2[nH]1` (racemic) [Compound VV, (RS)-2-(1-methyldecyl)indole-6-carboxylic acid] the change in vivo at 0.2 % strength [1] was -40% and the change in vivo at 0.2 % strength [2] was -73%.

`CCCCCCCCCCCC1Cc2cc(C(=O)O)ccc2N1` (racemic) [Compound YY, (RS)-2-(n-undecyl)indoline-5-carboxylic acid] showed a change in vivo at 0.03 % strength [3] of -25%, a change in vivo at 0.03 % strength [4] of -51% and a change in vivo at 0.1 % strength [3] of -21%. It also gave a change in vivo at 0.1 % strength [4] of -65%, a change in vivo at 0.2 % strength [1] of -32% and a change in vivo at 0.2 % strength [2] of -64%.

For `CCCCCCCCCCC1Cc2ccc(C(=O)O)cc2N1` (racemic) [Compound ZZ, (RS)-2-(n-decyl)indoline-6-carboxylic acid], the change in vivo at 0.2 % strength [1] was -32% and the change in vivo at 0.2 % strength [2] was -77%.

In the case of `CCCCCCCCCCCc1cc2ccc(C(=O)O)cc2[nH]1` [C sodium salt], the “% change in serum cholesterol compared with control” value (0.2 % w/w dose in diet, oral) is reported as -41% and the “% change in serum triglycerides compared with control” value (0.2 % w/w dose in diet, oral) is reported as -46%.

`CCCCCCCCCCCCCc1cc2ccc(C(=O)O)cc2[nH]1` [Compound A, 2-(n-tridecyl)indole-6-carboxylic acid] was tested, and the change in vivo at 0.2 % strength [1] was -26% and the change in vivo at 0.2 % strength [2] was -33%.

With `CCCCCCCCCCCCCCCCCCCCc1cc2cc(C(=O)O)ccc2[nH]1` [Compound AA, 2-(n-eicosyl)indole-5-carboxylic acid] the change in vivo at 0.2 % strength [1] was -36% and the change in vivo at 0.2 % strength [2] was -57%.

Compound `CCCCCCCc1cc2ccc(C(=O)OC)cc2[nH]1` [Compound AII, methyl 2-(n-heptyl)indole-6-carboxylate] has a change in vivo at 0.2 % strength [1] of 7% and a change in vivo at 0.2 % strength [2] of 20%.

`CCCCCCCc1cc2ccc(C(=O)OCCCC)cc2[nH]1` [Compound AKK, n-butyl 2-(n-heptyl)indole-6-carboxylate] showed a change in vivo at 0.2 % strength [1] of -3% and a change in vivo at 0.2 % strength [2] of -10%.

`CCCCCCCCCCCCCc1cc2ccc(C(=O)OCC)cc2[nH]1` [Compound AMM, ethyl 2-(n-tridecyl)indole-6-carboxylate] gave a change in vivo at 0.2 % strength [1] of -4% and a change in vivo at 0.2 % strength [2] of -12%.

`CCCCCCCCCCCCCCCc1cc2ccc(C(=O)OC)cc2[nH]1` [Compound ANN, methyl 2-(n-pentadecyl)indole-6-carboxylate] was tested, and the change in vivo at 0.2 % strength [1] was 1% and the change in vivo at 0.2 % strength [2] was -25%.

`CCCCCCCCCCCCCCCc1cc2ccc(C(=O)OCCCC)cc2[nH]1` [Compound APP, n-butyl 2-(n-pentadecyl)indole-6-carboxylate] was tested, and the change in vivo at 0.2 % strength [1] was -2% and the change in vivo at 0.2 % strength [2] was -20%.

For `CCCCCCCCCCCCCCCCCCCCc1cc2ccc(C(=O)OCCCC)cc2[nH]1` [Compound AQQ, n-butyl 2-(n-eicosyl)indole-6-carboxylate], the change in vivo at 0.2 % strength [1] was 6% and the change in vivo at 0.2 % strength [2] was -12%.

In the case of `CCCCCCCc1cc2cc(C(=O)OCCCC)ccc2[nH]1` [Compound ARR, n-butyl 2-(n-heptyl)indole-5-carboxylate], the change in vivo at 0.2 % strength [1] is reported as 8% and the change in vivo at 0.2 % strength [2] is reported as 20%.

For `CCCCCCCCCCCc1cc2cc(C(=O)OC)ccc2[nH]1` [Compound ATT, methyl 2-(n-undecyl)indole-5-carboxylate], the change in vivo at 0.2 % strength [1] was -16% and the change in vivo at 0.2 % strength [2] was -70%.

With `CCCCCCCCCCCc1cc2cc(C(=O)OCCCC)ccc2[nH]1` [Compound AUU, n-butyl 2-(n-undecyl)indole-5-carboxylate] the change in vivo at 0.2 % strength [1] was -14% and the change in vivo at 0.2 % strength [2] was -57%.

`CCCCCCCCCCCCc1cc2cc(C(=O)OC)ccc2[nH]1` [Compound AVV, methyl 2-(n-dodecyl)indole-5-carboxylate] gave a change in vivo at 0.1 % strength [3] of -16%, a change in vivo at 0.1 % strength [4] of -65% and a change in vivo at 0.2 % strength [1] of -21%. For the same compound, the change in vivo at 0.2 % strength [2] was -80%.

`CCCCCCCCCCCCCCCCCc1cc2cc(C(=O)OC)ccc2[nH]1` [Compound AWW, methyl 2-(n-heptadecyl)indole-5-carboxylate] was tested, and the change in vivo at 0.2 % strength [1] was -24%.
